As a reminder, the IC50 is the concentration that gives 50% inhibition.

This test concerns HIV-1 pseudotyped virus. The experiment in a line: HIV-1 pseudotyped virus assay (luciferase reporter gene, single cycle of infection). The following applies: Human immunodeficiency virus 1, CCR5, 72 h, read-out: Activity (antiviral activity, IC50). The class given is cell-based. In short, it runs like this: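 Single-cycle luciferase-reporter pseudovirus made by co-transfecting 293T cells with HIV-1 envelope plasmid plus env-defective, nef-replaced backbone; infects CD4/CCR5 or CXCR4 target cells. Compounds added before virus, serial dilutions in duplicate, two experiments; 3-day culture, lysis, luminescence. IC50 = 50% signal reduction interpolated from titration curve.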
Background: In a reporter assay the amount or activity of a reporter protein is the signal.

A value given as a limit tells only on which side of the number the result lay.

As to `C[C@@H]1CN(C(=O)c2ccccc2)CCN1C(=O)C(=O)c1ccc(-n2cccn2)nc1` [Example 214, 1-((R)-4-Benzoyl-2-methyl-piperazin-1-yl)-2-(6-pyrazol-1-yl-pyridin-3-yl)-ethane-1,2-dione], the IC50 is below 5 µM.
In the case of `C[C@@H]1CN(C(=O)c2ccccc2)CCN1C(=O)C(=O)c1ccc(-c2cc[nH]n2)cc1N(C)C` [Example 216, 1-((R)-4-Benzoyl-2-methyl-piperazin-1-yl)-2-[2-dimethylamino-4-(1H-pyrazol-3-yl)-phenyl]-ethane-1,2-dione] it was above 5 µM; in that of `C[C@@H]1CN(C(=O)c2ccccc2)CCN1C(=O)C(=O)c1ccc(-n2ccnc2)cc1` [Example 217], below 5 µM.
`Cc1cc(-n2ccnc2)ccc1C(=O)C(=O)N1CCN(C(=O)c2ccccc2)C[C@H]1C` [Example 218]: the IC50 was below 5 µM.
Regarding `C[C@@H]1CN(C(=O)c2ccccc2)CCN1C(=O)C(=O)c1ccc(-c2cc[nH]n2)cc1N` [Example 219, 1-((R)-4-Benzoyl-2-methyl-piperazin-1-yl)-2-[2-amino-4-(1H-pyrazol-3-yl)-phenyl]-ethane-1,2-dione], the IC50 was below 5 µM.
For the molecule `Cc1cc(-c2cc(Cl)c(C(=O)C(=O)N3CCN(C(=O)c4ccccc4)C[C@H]3C)c(Cl)c2)on1` [Example 220], the IC50 is above 5 µM.
Regarding `C[C@@H]1CN(C(=O)c2ccccc2)CCN1C(=O)C(=O)c1ccc(-c2cc[nH]n2)c(Cl)c1N(C)C` [Example 221], the IC50 was below 5 µM.
In the case of `C[C@@H]1CN(C(=O)c2ccccc2)CCN1C(=O)C(=O)c1cc(Cl)c(-c2cc[nH]n2)cc1N(C)C` [Example 222], the IC50 was above 5 µM.
Regarding `C[C@@H]1CN(C(=O)c2ccccc2)CCN1C(=O)C(=O)c1ccc(-c2cc[nH]n2)cc1O` [Example 223], the IC50 was below 5 µM.
Regarding `Cc1cc(-c2ccc(C(=O)C(=O)N3CCN(C(=O)c4ccccc4)C[C@H]3C)c(O)c2)on1` [Example 224], the IC50 is above 5 µM.
As for `C[C@@H]1CN(C(=O)c2ccccc2)CCN1C(=O)C(=O)c1ccc(Br)c(Cl)c1` [Example 225], the IC50 was below 5 µM.
As for `COc1cc(Br)ccc1C(=O)C(=O)N1CCN(C(=O)c2ccccc2)C[C@H]1C` [Example 226], the IC50 is below 5 µM.
For `CNc1cc(-c2cc[nH]n2)ccc1C(=O)C(=O)N1CCN(C(=O)c2ccccc2)C[C@H]1C` [Example 227], the half-inhibitory concentration (IC50) was above 5 µM.
On to `COc1cc(Br)c(Cl)cc1C(=O)C(=O)N1CCN(C(=O)c2ccccc2)CC1` [Example 228], for which the IC50 is below 5 µM.
As to `COc1cc(-c2onc(C)c2Cl)ccc1C(=O)C(=O)N1CCN(C(=O)c2ccccc2)C[C@H]1C` [Example 229], the IC50 is below 5 µM.
Take `C[C@@H]1CN(C(=O)c2ccccc2)CCN1C(=O)C(=O)c1cc(Cl)c(-c2cc[nH]n2)c(Cl)c1N` [Example 230]: the IC50 was above 5 µM.
Consider `C[C@@H]1CN(C(=O)c2ccccc2)CCN1C(=O)C(=O)c1ccc(-n2cncn2)c(Cl)c1` [Example 231], for which the IC50 is above 5 µM.
On to `C[C@@H]1CN(C(=O)c2ccccc2)CCN1C(=O)C(=O)c1ccc(-n2ccnn2)c(Cl)c1` [Example 232], for which the IC50 was above 5 µM.
In the case of `Cc1nnc(-c2ccc(C(=O)C(=O)N3CCN(C(=O)c4ccccc4)C[C@H]3C)cc2)s1` [Example 233] it was below 5 µM.
Take `C[C@@H]1CN(C(=O)c2ccccc2)CCN1C(=O)C(=O)c1ccc(-c2nc[nH]n2)cc1` [Example 234]: the IC50 is below 5 µM.
With `Cc1cc(-c2ccc(C(O)C(=O)N3CCN(C(=O)c4ccccc4)C[C@H]3C)cc2)on1` (stereo partly shown) [Example 235], the IC50 is above 5 µM.
The figure for `COc1cc(-n2ccnn2)c(Cl)cc1C(=O)C(=O)N1CCN(C(=O)c2ccccc2)CC1` [Example 236] is below 5 µM; for `COc1cc(-c2cc[nH]n2)c(Cl)cc1C(=O)C(=O)N1C2CCC1CN(C(=O)c1ccccc1)C2` [Example 237] it is above 5 µM; for `COc1cc(OC)c(C(=O)C(=O)N2CCN(C(=O)c3ccccc3)C[C@H]2C)cn1` [Example 238] it is above 5 µM.
For the molecule `COc1cc(-c2cnn(C)c2)ncc1C(=O)C(=O)N1CCN(C(=O)c2ccccc2)C[C@H]1C` [Example 239], the IC50 was below 5 µM.
In the case of `CC1CN(C(=O)c2ccccc2)CCN1C(=O)C(=O)c1ccc(-n2cccn2)cc1` (stereo not shown) [Example 240] it was below 5 µM; in that of `C[C@@H]1CN(C(=O)c2ccccc2)CCN1C(=O)C(=O)c1c[nH]c(-c2ccc3[nH]ccc3c2)c1` [Example 241], above 5 µM.
For the molecule `C[C@@H]1CN(C(=O)c2ccccc2)CCN1C(=O)C(=O)c1cnc(-c2ccccc2)c(Cl)c1O` [Example 242], the IC50 was above 5 µM.
Take `C[C@@H]1CN(C(=O)c2ccccc2)CCN1C(=O)C(=O)c1cnc(-c2cccs2)cc1O` [Example 243]: the half-inhibitory concentration (IC50) was above 5 µM.
In the case of `C[C@@H]1CN(C(=O)c2ccccc2)CCN1C(=O)C(=O)c1cnc(-c2ccccc2)cc1O` [Example 244], the IC50 is above 5 µM.
As for `C[C@@H]1CN(C(=O)c2ccccc2)CCN1S(=O)(=O)c1ccc(C(=O)c2cccs2)cc1` [Example 245], the half-inhibitory concentration (IC50) is above 5 µM.
As for `C[C@@H]1CN(C(=O)c2ccccc2)CCN1S(=O)(=O)c1ccc(C(=O)c2ccsc2)s1` [Example 246], the IC50 was above 5 µM.
In the case of `CC1CN(C(=O)c2ccccc2)CCN1S(=O)(=O)c1ccc(C(=O)c2ccco2)cc1` (stereo not shown) [Example 247] it was above 5 µM; in that of `C[C@@H]1CN(C(=O)c2ccccc2)CCN1S(=O)(=O)c1ccc(C(=O)c2ccon2)s1` [Example 248], above 5 µM; in that of `CC1CN(C(=O)c2ccccc2)CCN1S(=O)(=O)c1ccc(C(=O)n2ccnc2)cc1` (stereo not shown) [Example 249], above 5 µM.
As for `Cc1cc(C)n(-c2ccc(C(=O)C(=O)N3CCN(C(=O)c4ccccc4)C[C@H]3C)cc2)n1` [Example 250], the IC50 was above 5 µM.
In the case of `C[C@@H]1CN(C(=O)c2ccccc2)CCN1C(=O)C(=O)c1cccc(-c2cnco2)c1` [Example 251] it was above 5 µM.
In the case of `C[C@@H]1CN(C(=O)c2ccccc2)CCN1C(=O)C(=O)c1cccc(-c2ccccn2)c1` [Example 252], the concentration for half-maximal inhibition (IC50) is above 5 µM.
The figure for `C[C@@H]1CN(C(=O)c2ccccc2)CCN1C(=O)C(=O)c1cccc(-c2ncccn2)c1` [Example 253] is above 5 µM; for `COc1cc(OC)nc(-c2ccc(C(=O)C(=O)N3CCN(C(=O)c4ccccc4)C[C@H]3C)cc2)n1` [Example 254] it is above 5 µM.

The record behind these values is patent US20070259879A1, “Piperazine and piperidine biaryl derivatives” (priority 2006, published 2007).
